Series [1] has as its system Human immunodeficiency virus 1. As to the kind of experiment: Antiviral activity against wild type HIV1 infected in human MT2 cells. It is filed as functional, organism-based. To be noted: Human immunodeficiency virus 1, MT2.
Series [2] relates to Human immunodeficiency virus 1. Briefly: Antiviral activity against NNRTI-resistant HIV1 harboring reverse transcriptase K103N mutant infected in human MT2 cells. In kind it is functional, organism-based. The note with it: Human immunodeficiency virus 1, MT2.
For the next series, the target named is Albumin (Homo sapiens, UniProt P02768). Briefly: Binding affinity to human serum albumin. In kind it is ADME. The note with it: read-out: PB (converted).
Chain of Albumin (P02768 whole entry): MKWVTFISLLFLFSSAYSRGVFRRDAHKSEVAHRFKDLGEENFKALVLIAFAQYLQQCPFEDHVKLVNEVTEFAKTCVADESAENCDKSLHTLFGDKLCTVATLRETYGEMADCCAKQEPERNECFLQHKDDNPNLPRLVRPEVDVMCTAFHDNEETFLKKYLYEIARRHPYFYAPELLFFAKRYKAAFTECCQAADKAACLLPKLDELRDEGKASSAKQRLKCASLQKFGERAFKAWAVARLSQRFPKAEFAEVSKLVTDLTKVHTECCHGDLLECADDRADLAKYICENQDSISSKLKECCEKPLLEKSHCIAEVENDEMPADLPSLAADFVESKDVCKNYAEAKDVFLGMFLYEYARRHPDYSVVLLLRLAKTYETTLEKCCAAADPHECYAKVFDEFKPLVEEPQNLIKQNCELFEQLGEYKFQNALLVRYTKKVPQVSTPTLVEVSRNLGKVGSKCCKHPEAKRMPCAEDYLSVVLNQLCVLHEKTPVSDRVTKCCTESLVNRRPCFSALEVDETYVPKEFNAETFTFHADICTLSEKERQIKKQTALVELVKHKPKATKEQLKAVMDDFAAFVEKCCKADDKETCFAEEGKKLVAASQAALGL
Series [3] deals with Human immunodeficiency virus 1. Briefly: Antiviral activity against HIV1 harboring reverse transcriptase Y181C mutant infected in human MT2 cells. It is filed as functional, organism-based. To be noted: Human immunodeficiency virus 1, MT2.
The nature of series [4]: Volume of distribution at steady state in Beagle dog at 0.5 mg/kg, iv or. 5 mg/kg, po. In kind it is ADME, organism-based, Canis lupus familiaris. The note with it: in vivo, read-out: Vdss.
The nature of series [5]: Half life in Beagle dog at 0.5 mg/kg, iv or. 5 mg/kg, po. The note with it: in vivo. In kind it is ADME, organism-based, Canis lupus familiaris.
The nature of series [6]: Oral bioavailability in Beagle dog at 5 mg/kg, po dosed as suspension. It is filed as ADME, organism-based, Canis lupus familiaris. To be noted: in vivo.
A short description of series [7]: AUC ((0 to infinity)) in Beagle dog at 5 mg/kg, po dosed as Tablet formulation. In kind it is ADME, organism-based, Canis lupus familiaris. Details: time infinity, dose 5 mg/kg, route oral. The note with it: plasma.
Series [8] can be described thus: Aqueous solubility in 50 mM phosphate buffer. In kind it is physicochemical.
The nature of series [9]: AUC ((0 to infinity)) in Beagle dog at 5 mg/kg, po dosed as suspension. In kind it is ADME, organism-based, Canis lupus familiaris. Set-up: time infinity, dose 5 mg/kg, route oral. To be noted: plasma.
Series [10] is described as follows: Oral bioavailability in Beagle dog at 5 mg/kg, po dosed as Tablet formulation. It is filed as ADME, organism-based, Canis lupus familiaris. To be noted: in vivo.
The subject of another series is Canis familiaris. Briefly: Toxicity in Beagle dog assessed as emesis at greater than 5 mg/kg, po dosed as suspension. It is filed as organism-based, Canis lupus familiaris. To be noted: in vivo. Details: dose 5 mg/kg, route oral.
For series [11], the system named is Human immunodeficiency virus 1. Briefly: Ratio of EC50 for wild type HIV1 in absence of 50% human serum to EC50 for wild type HIV1 in presence of 50% human serum. It is filed as functional.
A short description of series [12]: Oral bioavailability in Beagle dog at 0.5 mg/kg. It is filed as ADME, organism-based, Canis lupus familiaris. To be noted: in vivo.
Series [13] has as its system Human immunodeficiency virus 1. Briefly: Ratio of EC50 for HIV1 harboring reverse transcriptase Y181C mutant in absence of 50% human serum to EC50 for HIV1 harboring reverse transcriptase Y181C mutant in presence of 50% human serum. In kind it is functional.
Series [14] relates to Human immunodeficiency virus 1. As to the kind of experiment: Ratio of EC50 for HIV1 harboring reverse transcriptase K103N mutant in absence of 50% human serum to EC50 for HIV1 harboring reverse transcriptase K103N mutant in presence of 50% human serum. It is filed as functional.
Series [15] can be described thus: Oral bioavailability in Beagle dog at 2 mg/kg. It is filed as ADME, organism-based, Canis lupus familiaris. To be noted: in vivo.
The nature of series [16]: Oral bioavailability in Beagle dog at 4 mg/kg. In kind it is ADME, organism-based, Canis lupus familiaris. The note with it: in vivo.

SMILES strings stand for the structures. pEC50: −log10 of the molar value. In brackets after ≈: the same amount, converted by molar mass.

Broadly, the pEC50 is −log10 of the EC50, conventionally taken in molar units. Read a low pEC50 as a large EC50. As to `CCn1c(C(F)c2cc(C)cc(C#N)c2)c(C(C)C)c(=O)[nH]c1=O` (stereo not drawn), the pEC50 was 7.68 in series [1], less than 7.62 in [2] and 8.09 in series [3]. Further, at Albumin, the fraction unbound is 0.02.

In general, half-life refers to the time needed for the level to fall by half in the phase considered. Low readings indicate fast loss, high ones slow loss. Consider `CCc1c(C(=O)c2cc(C)cc(C#N)c2)n(CC)c(=O)[nH]c1=O`, for which the pEC50 was 7.93 in series [1], less than 7.37 in series [2] and less than 7.37 in series [3]. Also, the Vd in series [4] was 1.53 L/kg. The half-life in series [5] is 1.42 h. For the same compound, the fraction unbound on Albumin was 0.149.

Turning to `CCn1c(Oc2cc(C)cc(C#N)c2)c(C(C)C)c(=O)[nH]c1=O`, the results for the pEC50 in [1], in series [2] and in series [3] were 7.46, less than 7.85 and 8.59, respectively. Further, the fraction unbound on Albumin was 0.04.

Usually AUC(0-inf) stands for total exposure, with the tail of the curve extrapolated. Read a high AUC(0-inf) as high exposure. As a reminder, the solubility is the dissolved amount per volume that the medium holds. Lower therefore signals a poorly soluble substance. Take `CCn1c(C(=O)c2cc(C)cc(C#N)c2)c(C(C)C)c(=O)n(COC(C)=O)c1=O`: the bioavailability in [6] amounted to 48.9%; in series [10] it was 35.3%. In addition, the AUC(0-inf) stood at 8.78 µM·h in series [7] and 14.7 µM·h in [9]. This compound registered a solubility in series [8] of 2.2 µg/mL (≈ 5.54 µM).

In the case of `CCn1c(C(=O)c2cc(C)cc(C#N)c2)c(C(C)C)c(=O)n(COC(=O)OC(C)C)c1=O`, the bioavailability was found to be 108% in [6] and 24% in [10]. Further, the AUC(0-inf) came to 4.54 µM·h in series [7] and 54 µM·h in series [9]. For the same compound, the solubility in [8] was less than 1 µg/mL.

On to `CCn1c(C(=O)c2cc(C)cc(C#N)c2)c(C(C)C)c(=O)n(COP(=O)(O)O)c1=O`, for which the bioavailability in series [6] is 75.2%. The compound further yielded a solubility in series [8] of 12000 µg/mL (≈ 27600 µM). In series [9], this compound returned an AUC(0-inf) of 18.8 µM·h. In the series with Canis familiaris, the Activity entry was “Toxic”.

For the compound `Cc1cc(C#N)cc(C(=O)c2[nH]c(=O)[nH]c(=O)c2C(C)C)c1`, the pEC50 was less than 6.30 in series [1], less than 9.00 in [2] and less than 9.00 in series [3]. Moreover, the Vd in [4] amounted to 0.45 L/kg. The half-life in [5] was 6.4 h.

In the case of `Cc1cc(C#N)cc(C(=O)c2c(C(C)C)c(=O)[nH]c(=O)n2C)c1`, the pEC50 in [1] is 6.73; in series [2], less than 8.57; in [3] it was less than 8.57. On Albumin, the fraction unbound is 0.141.

Turning to `CCn1c(C(=O)c2cc(C)cc(C#N)c2)c(C(C)C)c(=O)[nH]c1=O`, the figures for the pEC50 in series [1], in [2] and in series [3] were 8.21, 8.19 and 8.02, respectively. Moreover, the figures for the bioavailability in [6], in [12] and in series [10] were 35.8%, 69% and 45.1%, respectively. Moreover, the AUC(0-inf) in series [7] is 13.5 µM·h; in [9], 13.1 µM·h. The Vd in series [4] came to 2.25 L/kg. In addition, the “Ratio EC50” value in [11], in series [13] and in series [14] was 2.7 in each case. Further, the concentration in solution in series [8] (solubility) was 11 µg/mL (≈ 33.8 µM). Moreover, in [5], the half-life is 6.5 h. Further, on Albumin, the fraction unbound is 0.166.

Turning to `CCCn1c(C(=O)c2cc(C)cc(C#N)c2)c(C(C)C)c(=O)[nH]c1=O`, the pEC50 in series [1] was 8.44; in series [2], less than 7.44; in series [3], less than 7.24. Moreover, the Vd in series [4] was 1.4 L/kg. The compound also showed a half-life in [5] of 1.67 h. Also, the fraction unbound on Albumin is 0.009.

As for `CCCCn1c(C(=O)c2cc(C)cc(C#N)c2)c(C(C)C)c(=O)[nH]c1=O`, the results for the pEC50 in series [1], in series [2] and in [3] were 8.52, 8.00 and 7.92, respectively. In addition, the Vd in series [4] was 2.23 L/kg. Also, in series [5], the half-life is 6.1 h. Besides, the bioavailability in series [15] came out at 28%. In addition, the fraction unbound on Albumin is 0.001.

As for `CCn1c(C(=O)c2cc(C)cc(C#N)c2)c(C(C)(C)C)c(=O)[nH]c1=O`, the pEC50 is 8.00 in [1], 8.57 in series [2] and less than 7.30 in [3]. Also, the fraction unbound at Albumin is 0.007.

`CCn1c(C(F)(F)c2cc(C)cc(C#N)c2)c(C(C)C)c(=O)[nH]c1=O`: the pEC50 in series [1] was 8.38; in series [2] it was 8.05; in series [3] it was 8.37. Also, at Albumin, the fraction unbound was 0.013.

Regarding `O=C1Nc2ccc(Cl)cc2[C@@](C#CC2CC2)(C(F)(F)F)O1` [EFAVIRENZ], the fraction unbound on Albumin was 0.001.

As to `Cc1cc(C#N)cc(C)c1Oc1nc(Nc2ccc(C#N)cc2)nc(N)c1Br` [ETRAVIRINE], in series [16], the bioavailability is 13%. The Vd in [4] was 1.6 L/kg. The half-life in series [5] was 8.87 h. Moreover, at Albumin, the fraction unbound is 0.002.

(Values after ChEMBL document CHEMBL1154952, “N1-Alkyl pyrimidinediones as non-nucleoside inhibitors of HIV-1 reverse transcriptase” (Bioorg Med Chem Lett, 2010).)
